The values below come from the supplement of paper PMC10307832.

Molecules are shown by their SMILES.

Assay in all cases: relative viability (nuclei count vs DMSO), 5 days (fraction); higher = more cells survive
Assay [1] relates to NCI-H1623. The method, boiled down:
(§1)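 Lung cancer cell lines were pin-tool dosed in 1536-well plates on the day after seeding, with either a lone drug or a fixed anchor-drug dose plus five library-drug doses (not always all listed) in √10 steps. Nuclei were counted on 4× images after 5 days. Relative viability is the ratio of treated-well to vehicle-well nuclei counts, with each value a median of duplicate plates.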

The subject of assay [2] is NCI-H1648. The method, boiled down:
as §1

Assay [3] deals with NCI-H661. In a few lines:
as §1

The test system of assay [4] is A549. In a few lines: as §1

Regarding `CC(C)Oc1cc(Nc2nc(N[C@@H](C)c3ccc(F)cn3)ncc2Cl)n[nH]1` [AZ23] + Cc1cc(Nc2cc(N3CCN(C)CC3)nc(Sc3ccc(NC(=O)C4CC4)cc3)n2)n[nH]1 [Tozasertib] (partner 0.1 µM), the relative viability is 0.402 in assay [1] (first compound 0.01 µM); 0.427 in assay [1] (first compound 0.03162 µM); 0.504 in assay [1] (first compound 0.3162 µM); 0.542 in assay [2] (first compound 0.03162 µM); 0.502 in assay [2] (first compound 0.3162 µM); 0.366 in assay [3] (first compound 0.01 µM). Moreover, the relative viability in assay [3] (first compound 0.03162 µM) stood at 0.354; in assay [3] (first compound 0.3162 µM), 0.353.
With `C[C@@H]1CN(CC(=O)Nc2ccc3c(c2)Cc2cccc(-c4cc(=O)cc(N5CCOCC5)o4)c2S3)C[C@H](C)O1` + Cc1cc(Nc2cc(N3CCN(C)CC3)nc(Sc3ccc(NC(=O)C4CC4)cc3)n2)n[nH]1 [Tozasertib] (partner 0.1 µM), the relative viability in assay [1] (first compound 0.04 µM) came out at 0.461; in assay [1] (first compound 0.1265 µM) it was 0.409; in assay [1] (first compound 0.4 µM), 0.406; in assay [1] (first compound 4 µM) it was 0.417; in assay [2] (first compound 0.04 µM), 0.3; in assay [2] (first compound 0.1265 µM), 0.421. For the same molecule, the relative viability turned out to be 0.542 in assay [2] (first compound 0.4 µM); 0.395 in assay [2] (first compound 4 µM); 0.345 in assay [3] (first compound 0.04 µM); 0.366 in assay [3] (first compound 0.1265 µM); 0.355 in assay [3] (first compound 0.4 µM); 0.366 in assay [3] (first compound 4 µM).
As to `Clc1ccc(Nc2nnc(Cc3ccncc3)c3ccccc23)cc1` [Vatalanib] + Cc1cc(Nc2cc(N3CCN(C)CC3)nc(Sc3ccc(NC(=O)C4CC4)cc3)n2)n[nH]1 [Tozasertib] (partner 0.1 µM), the relative viability in assay [1] (first compound 0.04 µM) is 0.415; in assay [1] (first compound 0.1265 µM), 0.435; in assay [1] (first compound 0.4 µM), 0.455; in assay [1] (first compound 1.265 µM) it was 0.374; in assay [1] (first compound 4 µM), 0.393; in assay [2] (first compound 0.04 µM), 0.581. Further, the relative viability in assay [2] (first compound 0.1265 µM) came to 0.442; in assay [2] (first compound 0.4 µM) it was 0.483; in assay [2] (first compound 1.265 µM), 0.523; in assay [2] (first compound 4 µM), 0.419; in assay [3] (first compound 0.04 µM) it was 0.357; in assay [3] (first compound 0.1265 µM), 0.363. The relative viability is 0.331 in assay [3] (first compound 0.4 µM), 0.357 in assay [3] (first compound 1.265 µM) and 0.366 in assay [3] (first compound 4 µM).
As to `COc1cc(N2CCC(C(N)=O)CC2)ccc1Nc1nc(N)c(Cl)c(Nc2ccccc2S(=O)(=O)C(C)C)n1` [HG-5-88-01] + COc1cccc2cc(-c3nc([C@H]4CC[C@H](C(=O)O)CC4)n4ncnc(N)c34)[nH]c12 [OSI-027] (partner 0.5 µM), the relative viability in assay [1] (first compound 0.04 µM) was determined as 0.451; in assay [1] (first compound 0.1265 µM), 0.378; in assay [1] (first compound 0.4 µM), 0.408; in assay [1] (first compound 4 µM), 0.296; in assay [2] (first compound 0.04 µM), 0.257; in assay [2] (first compound 0.1265 µM), 0.258. Besides, the relative viability in assay [2] (first compound 0.4 µM) was 0.259; in assay [2] (first compound 1.265 µM), 0.28; in assay [2] (first compound 4 µM), 0.29; in assay [3] (first compound 0.04 µM), 0.659; in assay [3] (first compound 0.1265 µM), 0.709; in assay [3] (first compound 0.4 µM), 0.684. For the same molecule, the values for the relative viability in assay [3] (first compound 1.265 µM) and in assay [3] (first compound 4 µM) were 0.428 and 0.569, respectively.
For the molecule `COc1cc(N2CCC(C(N)=O)CC2)ccc1Nc1nc(N)c(Cl)c(Nc2ccccc2S(=O)(=O)C(C)C)n1` [HG-5-88-01] + CCNC(=O)c1noc(-c2cc(C(C)C)c(O)cc2O)c1-c1ccc(CN2CCOCC2)cc1 [Luminespib] (partner 0.01 µM), the relative viability in assay [1] (first compound 0.04 µM) came to 0.539; in assay [1] (first compound 0.1265 µM) it was 0.619; in assay [1] (first compound 0.4 µM) it was 0.529; in assay [1] (first compound 4 µM), 0.47; in assay [3] (first compound 0.04 µM), 0.938; in assay [3] (first compound 0.1265 µM), 0.964. The values for the relative viability in assay [3] (first compound 0.4 µM), in assay [3] (first compound 1.265 µM) and in assay [3] (first compound 4 µM) were 1.04, 1.03 and 0.951, respectively.
As to `Clc1ccc(Nc2nnc(Cc3ccncc3)c3ccccc23)cc1` [Vatalanib] + CCNC(=O)c1noc(-c2cc(C(C)C)c(O)cc2O)c1-c1ccc(CN2CCOCC2)cc1 [Luminespib] (partner 0.01 µM), the relative viability in assay [1] (first compound 0.04 µM) came to 0.428; in assay [1] (first compound 0.1265 µM) it was 0.616; in assay [1] (first compound 0.4 µM), 0.579; in assay [1] (first compound 1.265 µM) it was 0.471; in assay [1] (first compound 4 µM), 0.478; in assay [3] (first compound 0.04 µM), 0.887. Moreover, the relative viability in assay [3] (first compound 0.1265 µM) was 0.91; in assay [3] (first compound 0.4 µM) it was 0.998; in assay [3] (first compound 1.265 µM) it was 0.89; in assay [3] (first compound 4 µM), 0.931.
`COc1cc(N2CCC(C(N)=O)CC2)ccc1Nc1nc(N)c(Cl)c(Nc2ccccc2S(=O)(=O)C(C)C)n1` [HG-5-88-01] + N=C(N)NC(=N)NCCc1ccccc1 [Phenformin] (partner 250 µM): the relative viability in assay [4] (first compound 0.04 µM) was determined as 0.246; in assay [4] (first compound 0.1265 µM) it was 0.24; in assay [4] (first compound 0.4 µM), 0.327; in assay [4] (first compound 1.265 µM), 0.347; in assay [4] (first compound 4 µM), 0.183; in assay [1] (first compound 0.04 µM), 0.651. The relative viability in assay [1] (first compound 0.1265 µM) is 0.618; in assay [1] (first compound 0.4 µM), 0.561; in assay [1] (first compound 4 µM) it was 0.524; in assay [3] (first compound 0.04 µM) it was 0.301; in assay [3] (first compound 0.1265 µM), 0.277; in assay [3] (first compound 0.4 µM) it was 0.259. The relative viability in assay [3] (first compound 1.265 µM) worked out at 0.24; in assay [3] (first compound 4 µM), 0.248.
